Patent US7138361B2, “Herbicidal heterocycles” (E. I. du Pont de Nemours and Company, priority 2000, dated 2006)

Legend:
Format in all cases: in vivo
Sunflower = test: Test C preemergence; conditions: scale 0 to 100, 0 no effect, 100 complete control
Nightshade = test: Test C preemergence; conditions: visual evaluation after 12 to 14 days
[1] = tested on: Surinam grass (Brachiaria decumbens); test: Test B postemergence; conditions: 13 to 15 days
In short: (§1)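 Seeds were planted and sprayed preemergence with test chemical in a non-phytotoxic solvent mixture containing surfactant; postemergence plants (2 to 18 cm, 1- to 4-leaf stage) received the same formulation. Greenhouse hold 13 to 15 days, then visual rating versus untreated controls on a 0–100 scale (0 no effect, 100 complete control).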

[2] = tested on: cocklebur (Xanthium strumarium); test: Test B postemergence; conditions: 13 to 15 days
In short: as §1

[3] = tested on: giant foxtail (Setaria faberii); test: Test B postemergence; conditions: 13 to 15 days
In short: as §1

[4] = tested on: barnyardgrass (Echinochloa crus-galli); test: Test B postemergence; conditions: 13 to 15 days
In short: as §1

corn (Zea mays) [5] = test: Test B postemergence; conditions: 13 to 15 days
In short: as §1

[6] = tested on: pigweed (Amaranthus retroflexus); test: Test B postemergence; conditions: 13 to 15 days
In short: as §1

[7] = tested on: crabgrass (Digitaria sanguinalis); test: Test B postemergence; conditions: 13 to 15 days
In short: as §1

[8] = tested on: morning glory (Ipomoea hederacea); test: Test B postemergence; conditions: 13 to 15 days
In short: as §1

wild oat (Avena fatua) = test: Test B postemergence; conditions: 13 to 15 days
In short: as §1

[9] = tested on: lambsquarters (Chenopodium album); test: Test B postemergence; conditions: 13 to 15 days
In short: as §1

[10] = tested on: velvetleaf (Abutilon theophrasti); test: Test B postemergence; conditions: 13 to 15 days
In short: as §1

[11] = tested on: wheat (Triticum aestivum); test: Test B postemergence; conditions: 13 to 15 days
In short: as §1

[12] = tested on: blackgrass (Alopecurus myosuroides); test: Test B postemergence; conditions: 13 to 15 days
In short: as §1

[13] = tested on: Surinam grass (Brachiaria decumbens); test: Test B preemergence
In short: as §1

[14] = tested on: cocklebur (Xanthium strumarium); test: Test B preemergence
In short: as §1

[15] = tested on: giant foxtail (Setaria faberii); test: Test B preemergence
In short: as §1

[16] = tested on: barnyardgrass (Echinochloa crus-galli); test: Test B preemergence
In short: as §1

corn (Zea mays) [17] = test: Test B preemergence
In short: as §1

[18] = tested on: pigweed (Amaranthus retroflexus); test: Test B preemergence
In short: as §1

[19] = tested on: crabgrass (Digitaria sanguinalis); test: Test B preemergence
In short: as §1

[20] = tested on: morning glory (Ipomoea hederacea); test: Test B preemergence
In short: as §1

rice (Oryza saliva) = test: Test B preemergence
In short: as §1

[21] = tested on: lambsquarters (Chenopodium album); test: Test B preemergence
In short: as §1

[22] = tested on: velvetleaf (Abutilon theophrasti); test: Test B preemergence
In short: as §1

[23] = Rate 125 g/ha, scale 0 (no effect) to 100 (complete control)
[24] = Rate 500 g/ha, scale 0 to 100, 0 is no effect, 100 is complete control
[25] = Preemergence, Rate 500 g/ha, scale 0 to 100, 0 no effect, 100 complete control
[26] = preemergence, Rate 125 g/ha, scale of 0 to 100 where 0 is no effect and 100 is complete control, 13 to 15 days
[27] = preemergence, Rate 125 g/ha, scale 0 to 100, 0 no effect, 100 complete control

CCC(C)c1ccn(C2OCN(c3cccc(OC(F)(F)F)c3)C2=O)n1 (centres unmarked) [Compound 67]
40: Plant response rating, Foxtail, Giant [3, 24] | Plant response rating, Foxtail, Giant [15, 25] | Plant response rating, Foxtail, Giant [15, 26] | Plant response rating, Rice (rice (Oryza saliva); [25]) | Plant response rating, Rice (rice (Oryza saliva); [26])
100: Plant response rating, Barnyardgrass [4, 24] | Plant response rating, Crabgrass [7, 24] | Plant response rating, Lambsquarters [9, 24] | Plant response rating, Barnyardgrass [16, 25] | Plant response rating, Pigweed [18, 25] | Plant response rating, Pigweed [18, 26] | Plant response rating, Lambsquarters [21, 25] | Plant response rating, Lambsquarters [21, 26]
60: Plant response rating (0 to 100), Nightshade (Nightshade; Rate 500 g/ha) | Plant response rating, Cocklebur [2, 24] | Plant response rating, Barnyardgrass [16, 26]
80: Plant response rating, Crabgrass [19, 25]
0: Plant response rating, Sunflower (Sunflower; Rate 125 g/ha) | Plant response rating, Sunflower (Sunflower; Rate 250 g/ha) | Plant response rating, Cocklebur [2, 23] | Plant response rating, Corn (corn (Zea mays) [5]; [23]) | Plant response rating, Corn (corn (Zea mays) [5]; [24]) | Plant response rating, Pigweed [6, 23] | Plant response rating, Pigweed [6, 24] | Plant response rating, Morningglory [8, 23] | Plant response rating, Morningglory [8, 24] | Plant response rating, Wild Oat (wild oat (Avena fatua); [23]) | Plant response rating, Wild Oat (wild oat (Avena fatua); [24]) | Plant response rating, Velvetleaf [10, 23] | Plant response rating, Wheat [11, 23] | Plant response rating, Wheat [11, 24] | Plant response rating, Blackgrass [12, 23] | Plant response rating, Blackgrass [12, 24] | Plant response rating, Cocklebur [14, 25] | Plant response rating, Cocklebur [14, 26] | Plant response rating, Corn (corn (Zea mays) [17]; [26]) | Plant response rating, Morningglory [20, 25] | Plant response rating, Morningglory [20, 26] | Plant response rating, Velvetleaf [22, 25] | Plant response rating, Velvetleaf [22, 26]
30: Plant response rating, Surinam grass [1, 23] | Plant response rating, Surinam grass [1, 24]
90: Plant response rating, Barnyardgrass [4, 23] | Plant response rating, Lambsquarters [9, 23]
20: Plant response rating, Foxtail, Giant [3, 23] | Plant response rating, Velvetleaf [10, 24] | Plant response rating, Surinam grass [13, 26] | Plant response rating, Corn (corn (Zea mays) [17]; [25]) | Plant response rating, Crabgrass [19, 26]
50: Plant response rating, Crabgrass [7, 23] | Plant response rating, Surinam grass [13, 25]

CCCOc1cc(N2CCC(n3ccc(C(C)(C)C)n3)C2=O)ccc1C (centres unmarked) [Compound 107]
0: Plant response rating, Surinam grass [1, 23] | Plant response rating, Surinam grass [1, 24] | Plant response rating, Foxtail, Giant [3, 23] | Plant response rating, Foxtail, Giant [3, 24] | Plant response rating, Barnyardgrass [4, 23] | Plant response rating, Barnyardgrass [4, 24] | Plant response rating, Corn (corn (Zea mays) [5]; [23]) | Plant response rating, Corn (corn (Zea mays) [5]; [24]) | Plant response rating, Crabgrass [7, 23] | Plant response rating, Crabgrass [7, 24] | Plant response rating, Wild Oat (wild oat (Avena fatua); [24]) | Plant response rating, Wheat [11, 24] | Plant response rating, Blackgrass [12, 23] | Plant response rating, Blackgrass [12, 24] | Plant response rating, Surinam grass [13, 26] | Plant response rating, Cocklebur [14, 26] | Plant response rating, Foxtail, Giant [15, 26] | Plant response rating, Barnyardgrass [16, 26] | Plant response rating, Corn (corn (Zea mays) [17]; [25]) | Plant response rating, Corn (corn (Zea mays) [17]; [26]) | Plant response rating, Crabgrass [19, 26] | Plant response rating, Morningglory [20, 26] | Plant response rating, Rice (rice (Oryza saliva); [25]) | Plant response rating, Rice (rice (Oryza saliva); [26]) | Plant response rating, Velvetleaf [22, 25] | Plant response rating, Velvetleaf [22, 26]
80: Plant response rating, Pigweed [18, 26]
30: Plant response rating, Barnyardgrass [16, 25]
100: Plant response rating, Cocklebur [2, 24] | Plant response rating, Lambsquarters [9, 24] | Plant response rating, Pigweed [18, 25] | Plant response rating, Crabgrass [19, 25] | Plant response rating, Morningglory [20, 25] | Plant response rating, Lambsquarters [21, 25] | Plant response rating, Lambsquarters [21, 26]
20: Plant response rating, Cocklebur [14, 25]
70: Plant response rating, Cocklebur [2, 23] | Plant response rating, Morningglory [8, 24] | Plant response rating, Velvetleaf [10, 24] | Plant response rating, Surinam grass [13, 25]
40: Plant response rating, Sunflower (Sunflower; Rate 250 g/ha) | Plant response rating, Foxtail, Giant [15, 25]
90: Plant response rating (0 to 100), Nightshade (Nightshade; Rate 500 g/ha) | Plant response rating, Pigweed [6, 24]

O=C1C(n2ccc(C3CC3)n2)CCN1c1cccc(C(F)(F)F)c1 (centres unmarked) [Compound 8]
0: Plant response rating, Sunflower (Sunflower; Rate 125 g/ha) | Plant response rating (0 to 100), Nightshade (Nightshade; Rate 250 g/ha) | Plant response rating, Surinam grass [1, 23] | Plant response rating, Surinam grass [1, 24] | Plant response rating, Cocklebur [2, 23] | Plant response rating, Foxtail, Giant [3, 23] | Plant response rating, Foxtail, Giant [3, 24] | Plant response rating, Barnyardgrass [4, 23] | Plant response rating, Barnyardgrass [4, 24] | Plant response rating, Corn (corn (Zea mays) [5]; [23]) | Plant response rating, Corn (corn (Zea mays) [5]; [24]) | Plant response rating, Pigweed [6, 23] | Plant response rating, Crabgrass [7, 23] | Plant response rating, Crabgrass [7, 24] | Plant response rating, Morningglory [8, 23] | Plant response rating, Morningglory [8, 24] | Plant response rating, Wild Oat (wild oat (Avena fatua); [23]) | Plant response rating, Wild Oat (wild oat (Avena fatua); [24]) | Plant response rating, Velvetleaf [10, 23] | Plant response rating, Velvetleaf [10, 24] | Plant response rating, Wheat [11, 23] | Plant response rating, Wheat [11, 24] | Plant response rating, Blackgrass [12, 23] | Plant response rating, Blackgrass [12, 24] | Plant response rating, Cocklebur [14, 25] | Plant response rating, Cocklebur [14, 27] | Plant response rating, Barnyardgrass [16, 27] | Plant response rating, Corn (corn (Zea mays) [17]; [25]) | Plant response rating, Corn (corn (Zea mays) [17]; [27]) | Plant response rating, Morningglory [20, 25] | Plant response rating, Morningglory [20, 27] | Plant response rating, Rice (rice (Oryza saliva); [25]) | Plant response rating, Rice (rice (Oryza saliva); [27]) | Plant response rating, Lambsquarters [21, 27] | Plant response rating, Velvetleaf [22, 25] | Plant response rating, Velvetleaf [22, 27]
90: Plant response rating, Foxtail, Giant [15, 25]
20: Plant response rating, Surinam grass [13, 27] | Plant response rating, Pigweed [18, 27]
10: Plant response rating, Cocklebur [2, 24] | Plant response rating, Pigweed [6, 24]
70: Plant response rating, Surinam grass [13, 25] | Plant response rating, Barnyardgrass [16, 25]
30: Plant response rating, Lambsquarters [9, 23] | Plant response rating, Crabgrass [19, 27]
50: Plant response rating, Lambsquarters [9, 24]
100: Plant response rating, Pigweed [18, 25] | Plant response rating, Crabgrass [19, 25] | Plant response rating, Lambsquarters [21, 25]
40: Plant response rating, Foxtail, Giant [15, 27]

CCC(C)c1ccn(C2SCN(c3cccc(OC(F)(F)F)c3)C2=O)n1 (centres unmarked) [Compound 40]
70: Plant response rating, Foxtail, Giant [3, 23] | Plant response rating, Lambsquarters [9, 23] | Plant response rating, Foxtail, Giant [15, 27]
20: Plant response rating, Morningglory [8, 24]
90: Plant response rating, Foxtail, Giant [3, 24] | Plant response rating, Barnyardgrass [4, 23] | Plant response rating, Crabgrass [7, 24] | Plant response rating, Lambsquarters [9, 24] | Plant response rating, Surinam grass [13, 25]
10: Plant response rating, Morningglory [8, 23]
40: Plant response rating (0 to 100), Nightshade (Nightshade; Rate 250 g/ha) | Plant response rating, Pigweed [6, 23]
80: Plant response rating, Pigweed [6, 24]
100: Plant response rating, Barnyardgrass [4, 24] | Plant response rating, Foxtail, Giant [15, 25] | Plant response rating, Barnyardgrass [16, 25] | Plant response rating, Barnyardgrass [16, 27] | Plant response rating, Pigweed [18, 25] | Plant response rating, Crabgrass [19, 25] | Plant response rating, Crabgrass [19, 27] | Plant response rating, Rice (rice (Oryza saliva); [25]) | Plant response rating, Lambsquarters [21, 25] | Plant response rating, Lambsquarters [21, 27]
30: Plant response rating, Cocklebur [2, 23]
0: Plant response rating, Sunflower (Sunflower; Rate 125 g/ha) | Plant response rating, Surinam grass [1, 23] | Plant response rating, Surinam grass [1, 24] | Plant response rating, Corn (corn (Zea mays) [5]; [23]) | Plant response rating, Wild Oat (wild oat (Avena fatua); [23]) | Plant response rating, Wild Oat (wild oat (Avena fatua); [24]) | Plant response rating, Velvetleaf [10, 23] | Plant response rating, Velvetleaf [10, 24] | Plant response rating, Wheat [11, 23] | Plant response rating, Wheat [11, 24] | Plant response rating, Blackgrass [12, 23] | Plant response rating, Blackgrass [12, 24] | Plant response rating, Cocklebur [14, 25] | Plant response rating, Cocklebur [14, 27] | Plant response rating, Corn (corn (Zea mays) [17]; [27]) | Plant response rating, Velvetleaf [22, 25]
60: Plant response rating, Crabgrass [7, 23] | Plant response rating, Surinam grass [13, 27] | Plant response rating, Corn (corn (Zea mays) [17]; [25]) | Plant response rating, Morningglory [20, 25]
50: Plant response rating, Cocklebur [2, 24] | Plant response rating, Corn (corn (Zea mays) [5]; [24])
